In patent US20250197387A1, “BCL-XL DEGRADERS AND USES THEREOF” (Kymera Therapeutics, Inc., priority 2021, published 2025):

How the values were obtained:
Assay type in all cases: cell-based
[1] = test system: MOLT-4 cells; experiment: CTG (CellTiter-Glo) cell viability assay, MOLT-4; settings: Homo sapiens, MOLT-4, 72 h, 3 day incubation, read-out: CTG Cell Viability Assay - MOLT-4 3 day: Average external-IC50
How it was run: (§1)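 IC50 is from a three-parameter logistic fit of CellTiter-Glo luminescence after 3-day treatment of cells seeded at 10,000 per well. Codes: MOLT-4 A <0.1, B 0.1-1.0, C >1.0-3.0, D >3.0 μM; Caki-2 A <0.1, B 0.1-1.0, C >1.0-10.0, D >10.0 μM.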

[2] = target: T1, BCL-XL (Homo sapiens, UniProt Q07817); experiment: Bcl-xL ELISA degradation in MOLT-4 cells, 6 h; settings: for DC50: read-out: Bcl-xL ELISA in MOLT-4 degradation 6 h: Mean external-Abs DC50
T1 construct: endogenous in cells; host or cells: MOLT-4
T1 sequence (Q07817 whole entry): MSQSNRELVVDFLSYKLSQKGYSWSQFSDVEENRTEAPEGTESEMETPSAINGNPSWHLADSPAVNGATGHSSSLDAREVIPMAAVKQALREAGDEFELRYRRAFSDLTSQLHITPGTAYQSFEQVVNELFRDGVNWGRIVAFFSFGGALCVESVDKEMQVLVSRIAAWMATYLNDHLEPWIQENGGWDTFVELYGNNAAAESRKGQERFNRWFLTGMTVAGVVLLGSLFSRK
Experimental: The letter codes for BCL-XL DC50 include: A (<0.01 μM); B (0.01-0.1 μM); C (>[…]); D (>0.5-1.0 μM); and E (>1.0 μM). The letter codes for Dmax % include A (>75%); B (50 to 75%); C (<50%).

[3] = test system: Caki-2 cells; experiment: CTG (CellTiter-Glo) cell viability assay, Caki-2; settings: Homo sapiens, 72 h, 3 day incubation, read-out: CTG Chempartner - Caki-2 3 day: Average external-IC50
How it was run: as §1

C#Cc1ccc(CNC(=O)[C@@H]2C[C@@H](O)CN2C(=O)[C@@H](NC(=O)CCCCCS(=O)(=O)NC(=O)c2nc(N3CCc4cccc(C(=O)Nc5nc6ccccc6s5)c4C3)ccc2-c2cnn(CC3CCCCC3)c2C)C(C)(C)CCO)cc1 [I-354]
IC50 [1]: < 100 nM
Dmax [2]: > 75%
DC50 [2]: < 10 nM
IC50 [3]: > 10 µM

C#Cc1ccc(CNC(=O)[C@@H]2C[C@@H](O)CN2C(=O)[C@H](NC(=O)CCCCCS(=O)(=O)NC(=O)c2nc(N3CCc4cccc(C(=O)Nc5nc6ccccc6s5)c4C3)ccc2-c2cnn(CC3CCCCC3)c2C)C(C)(C)CCO)cc1 [I-355]
IC50 [1]: 1000 to 3000 nM
Dmax [2]: > 75%
DC50 [2]: 100 to 500 nM
IC50 [3]: > 10 µM

Cc1cc(N(C)c2ccc(-c3cnn(CC45CC6CC(CC(C6)C4)C5)c3C)c(C(=O)NS(=O)(=O)CCCCCC(=O)N[C@H](C(=O)N3C[C@H](O)C[C@H]3C(=O)N[C@@H](C)c3ccc(-c4scnc4C)cc3)C(C)(C)C)n2)nnc1Nc1nc2ccccc2s1 [I-356]
IC50 [1]: < 100 nM
Dmax [2]: > 75%
DC50 [2]: < 10 nM
IC50 [3]: > 10 µM

Cc1ncsc1-c1ccc([C@H](C)NC(=O)[C@@H]2C[C@@H](O)CN2C(=O)[C@@H](NC(=O)[C@H]2CC[C@H](N3CCC(S(=O)(=O)NC(=O)c4nc(N5CCc6cccc(C(=O)Nc7nc8ccccc8s7)c6C5)ccc4-c4cnn(CC5CCCCC5)c4C)CC3)CC2)C(C)(C)C)cc1 [I-357]
IC50 [1]: 1000 to 3000 nM
Dmax [2]: > 75%
DC50 [2]: 100 to 500 nM
IC50 [3]: 1 to 10 µM

C#Cc1ccc(CNC(=O)[C@@H]2C[C@@H](O)CN2C(=O)[C@@H](NC(=O)C2CN(c3ccc(S(=O)(=O)NC(=O)c4nc(N5CCc6cccc(C(=O)Nc7nc8ccccc8s7)c6C5)ccc4-c4cnn(CC5CCCCC5)c4C)cc3F)C2)C(C)(C)C)cc1 [I-358]
IC50 [1]: < 100 nM
Dmax [2]: > 75%
DC50 [2]: 10 to 100 nM
IC50 [3]: 1 to 10 µM

Cc1ncsc1-c1ccc(CNC(=O)[C@@H]2C[C@@H](O)CN2C(=O)[C@@H](NC(=O)[C@H]2CCN(c3ccc(S(=O)(=O)NC(=O)c4nc(N5CCc6cccc(C(=O)Nc7nc8ccccc8s7)c6C5)ccc4-c4cnn(CC5CCCCC5)c4C)cc3)C2)C(C)(C)C)cc1 [I-359]
IC50 [1]: < 100 nM
Dmax [2]: > 75%
DC50 [2]: < 10 nM
IC50 [3]: > 10 µM

Cc1ncsc1-c1ccc(CNC(=O)[C@@H]2C[C@@H](O)CN2C(=O)[C@@H](NC(=O)C2CCN(c3ccc(S(=O)(=O)NC(=O)c4nc(N5CCc6cccc(C(=O)Nc7nc8ccccc8s7)c6C5)ccc4-c4cnn(CC5CCCCC5)c4C)cc3C#N)CC2)C(C)(C)C)cc1 [I-360]
IC50 [1]: 100 to 1000 nM
Dmax [2]: > 75%
DC50 [2]: < 10 nM
IC50 [3]: > 10 µM

C#Cc1ccc(CNC(=O)[C@@H]2C[C@@H](O)CN2C(=O)[C@@H](NC(=O)CCCS(=O)(=O)NC(=O)c2nc(N3CCc4cccc(C(=O)Nc5nc6cccnc6s5)c4C3)ccc2-c2cnn(CC3CCCCC3)c2C)C(C)(C)C)cc1 [I-362]
IC50 [1]: 100 to 1000 nM
Dmax [2]: > 75%
DC50 [2]: 10 to 100 nM
IC50 [3]: > 10 µM

Cc1ncsc1-c1ccc([C@H](C)NC(=O)[C@@H]2C[C@@H](O)CN2C(=O)[C@@H](NC(=O)CCCCCS(=O)(=O)NC(=O)c2nc(N3CCc4cccc(C(=O)Nc5nc6cccnc6s5)c4C3)ccc2-c2cnn(CC3CCCCC3)c2C)C(C)(C)C)cc1 [I-363]
IC50 [1]: < 100 nM
Dmax [2]: > 75%
DC50 [2]: 10 to 100 nM
IC50 [3]: > 10 µM

C#Cc1ccc([C@H](C)NC(=O)[C@@H]2C[C@@H](O)CN2C(=O)[C@@H](NC(=O)CCCCCS(=O)(=O)NC(=O)c2nc(N3CCc4cccc(C(=O)Nc5nc6cccnc6s5)c4C3)ccc2-c2cnn(CC3CCCCC3)c2C)C(C)(C)C)cc1 [I-364]
IC50 [1]: < 100 nM
Dmax [2]: > 75%
DC50 [2]: < 10 nM
IC50 [3]: > 10 µM

Cc1ncsc1-c1ccc([C@H](C)NC(=O)[C@@H]2C[C@@H](O)CN2C(=O)[C@@H](NC(=O)CCCCCS(=O)(=O)NC(=O)c2nc(N3CCc4cccc(C(=O)Nc5nc6ccccc6s5)c4C3)ccc2-c2cnn(CC3CCCCC3)c2C)C(C)(C)CCO)cc1 [I-365]
IC50 [1]: < 100 nM
Dmax [2]: > 75%
DC50 [2]: 10 to 100 nM
IC50 [3]: > 10 µM

Cc1ncsc1-c1ccc([C@H](C)NC(=O)[C@@H]2C[C@@H](O)CN2C(=O)[C@H](NC(=O)CCCCCS(=O)(=O)NC(=O)c2nc(N3CCc4cccc(C(=O)Nc5nc6ccccc6s5)c4C3)ccc2-c2cnn(CC3CCCCC3)c2C)C(C)(C)CCO)cc1 [I-366]
IC50 [1]: 1000 to 3000 nM
Dmax [2]: > 75%
DC50 [2]: 100 to 500 nM
IC50 [3]: > 10 µM

Cc1cc(N(C)c2ccc(-c3cnn(CC45CC6CC(CC(C6)C4)C5)c3C)c(C(=O)NS(=O)(=O)CCCCCC(=O)N[C@H](C(=O)N3C[C@H](O)C[C@H]3C(=O)NCc3ccc(-c4scnc4C)cc3)C(C)(C)C)n2)nnc1Nc1nc2ccccc2s1 [I-367]
IC50 [1]: < 100 nM
Dmax [2]: > 75%
DC50 [2]: 10 to 100 nM
IC50 [3]: > 10 µM

C#Cc1ccc([C@H](C)NC(=O)[C@@H]2C[C@@H](O)CN2C(=O)[C@@H](NC(=O)CCCCS(=O)(=O)NC(=O)c2nc(N(C)c3cc(C)c(Nc4nc5ccccc5s4)nn3)ccc2-c2cnn(CC34CC5CC(CC(C5)C3)C4)c2C)C(C)(C)C)cc1 [I-368]
IC50 [1]: < 100 nM
Dmax [2]: > 75%
DC50 [2]: 10 to 100 nM
IC50 [3]: > 10 µM

C#Cc1ccc(CNC(=O)[C@@H]2C[C@@H](O)CN2C(=O)[C@@H](NC(=O)CCCCS(=O)(=O)NC(=O)c2nc(N(C)c3cc(C)c(Nc4nc5ccccc5s4)nn3)ccc2-c2cnn(CC34CC5CC(CC(C5)C3)C4)c2C)C(C)(C)C)cc1 [I-369]
IC50 [1]: < 100 nM
Dmax [2]: > 75%
DC50 [2]: 10 to 100 nM
IC50 [3]: > 10 µM

Cc1cc(N(C)c2ccc(-c3cnn(CC45CC6CC(CC(C6)C4)C5)c3C)c(C(=O)NS(=O)(=O)CCCC(=O)N[C@H](C(=O)N3C[C@H](O)C[C@H]3C(=O)N[C@@H](C)c3ccc(-c4scnc4C)cc3)C(C)(C)C)n2)nnc1Nc1nc2ccccc2s1 [I-370]
IC50 [1]: < 100 nM
Dmax [2]: > 75%
DC50 [2]: 10 to 100 nM
IC50 [3]: > 10 µM

Cc1cc(N(C)c2ccc(-c3cnn(CC45CC6CC(CC(C6)C4)C5)c3C)c(C(=O)NS(=O)(=O)CCCCC(=O)N[C@H](C(=O)N3C[C@H](O)C[C@H]3C(=O)NCc3ccc(-c4scnc4C)cc3)C(C)(C)C)n2)nnc1Nc1nc2ccccc2s1 [I-371]
IC50 [1]: 100 to 1000 nM
Dmax [2]: > 75%
DC50 [2]: < 10 nM
IC50 [3]: > 10 µM

Cc1cc(N(C)c2ccc(-c3cnn(CC45CC6CC(CC(C6)C4)C5)c3C)c(C(=O)NS(=O)(=O)CCCCC(=O)N[C@H](C(=O)N3C[C@H](O)C[C@H]3C(=O)N[C@@H](C)c3ccc(-c4scnc4C)cc3)C(C)(C)C)n2)nnc1Nc1nc2ccccc2s1 [I-372]
IC50 [1]: < 100 nM
Dmax [2]: > 75%
DC50 [2]: 10 to 100 nM
IC50 [3]: > 10 µM

Cc1ncsc1-c1ccc([C@H](C)NC(=O)[C@@H]2C[C@@H](O)CN2C(=O)[C@@H](NC(=O)C2CCN(CCS(=O)(=O)NC(=O)c3nc(N4CCc5cccc(C(=O)Nc6nc7ccccc7s6)c5C4)ccc3-c3cnn(CC4CCCCC4)c3C)CC2)C(C)(C)C)cc1 [I-373]
IC50 [1]: 100 to 1000 nM
Dmax [2]: > 75%
DC50 [2]: 10 to 100 nM
IC50 [3]: > 10 µM

Cc1ncsc1-c1ccc(CNC(=O)[C@@H]2C[C@@H](O)CN2C(=O)[C@@H](NC(=O)CCCc2cc(F)cc(S(=O)(=O)NC(=O)c3nc(N4CCc5cccc(C(=O)Nc6nc7ccccc7s6)c5C4)ccc3-c3cnn(CC4CCCCC4)c3C)c2)C(C)(C)C)cc1 [I-374]
IC50 [1]: < 100 nM
Dmax [2]: > 75%
DC50 [2]: < 10 nM
IC50 [3]: 1 to 10 µM

C#Cc1ccc(CNC(=O)[C@@H]2C[C@@H](O)CN2C(=O)[C@@H](NC(=O)CCNCCS(=O)(=O)NC(=O)c2nc(N3CCc4cccc(C(=O)Nc5nc6cccnc6s5)c4C3)ccc2-c2cnn(CC3CCCCC3)c2C)C(C)(C)C)cc1 [I-375]
IC50 [1]: 1000 to 3000 nM
Dmax [2]: > 75%
DC50 [2]: 10 to 100 nM
IC50 [3]: > 10 µM

Cc1ncsc1-c1ccc([C@H](C)NC(=O)[C@@H]2C[C@@H](O)CN2C(=O)[C@@H](NC(=O)CCNCCS(=O)(=O)NC(=O)c2nc(N3CCc4cccc(C(=O)Nc5nc6cccnc6s5)c4C3)ccc2-c2cnn(CC3CCCCC3)c2C)C(C)(C)C)cc1 [I-376]
IC50 [1]: > 3000 nM
Dmax [2]: > 75%
DC50 [2]: 10 to 100 nM
IC50 [3]: > 10 µM

Cc1ncsc1-c1ccc([C@H](CO)NC(=O)[C@@H]2C[C@@H](O)CN2C(=O)[C@@H](NC(=O)CCNCCS(=O)(=O)NC(=O)c2nc(N3CCc4cccc(C(=O)Nc5nc6cccnc6s5)c4C3)ccc2-c2cnn(CC3CCCCC3)c2C)C(C)(C)C)cc1 [I-377]
IC50 [1]: 1000 to 3000 nM
Dmax [2]: > 75%
DC50 [2]: < 10 nM
IC50 [3]: > 10 µM

C#Cc1ccc([C@H](CO)NC(=O)[C@@H]2C[C@@H](O)CN2C(=O)[C@@H](NC(=O)CCNCCS(=O)(=O)NC(=O)c2nc(N3CCc4cccc(C(=O)Nc5nc6cccnc6s5)c4C3)ccc2-c2cnn(CC3CCCCC3)c2C)C(C)(C)C)cc1 [I-378]
IC50 [1]: 100 to 1000 nM
Dmax [2]: > 75%
DC50 [2]: 10 to 100 nM
IC50 [3]: > 10 µM

C#Cc1ccc(CNC(=O)[C@@H]2C[C@@H](O)CN2C(=O)[C@@H](NC(=O)CCCCCS(=O)(=O)NC(=O)c2nc(N(C)c3cc(C)c(Nc4nc5ccccc5s4)nn3)ccc2-c2cnn(CC34CC5CC(CC(C5)C3)C4)c2C)C(C)(C)C)cc1 [I-379]
IC50 [1]: < 100 nM
Dmax [2]: > 75%
DC50 [2]: < 10 nM
IC50 [3]: > 10 µM

Cc1ncsc1-c1ccc([C@H](C)NC(=O)[C@@H]2C[C@@H](O)CN2C(=O)[C@@H](NC(=O)C2CCN(c3cccc(S(=O)(=O)NC(=O)c4nc(N5CCc6cccc(C(=O)Nc7nc8ccccc8s7)c6C5)ccc4-c4cnn(CC5CCCCC5)c4C)c3)CC2)C(C)(C)C)cc1 [I-380]
IC50 [1]: < 100 nM
Dmax [2]: > 75%
DC50 [2]: < 10 nM
IC50 [3]: 1 to 10 µM
